Assay results from article PMC10545747, “Development of cyclopeptide inhibitors of cGAS targeting protein-DNA interaction and phase separation” (Nature Communications, 2023).
Several values for one entry are separate records, joined by “and”; a condition that tells them apart may be missing. Equal entries are not always repeated. Square brackets hold non-standard residues; d marks the D form. Peptide text beside a SMILES is read from it. Hyp = O=C(O)[C@@H]1C[C@@H](O)CN1

Biological target: T1, recombinant human cGAS enzyme (hcGAS-ΔN, residues 147–522) (Homo sapiens, UniProt Q8N884)
T1 construct: N-terminally truncated human cGAS (hcGAS-ΔN, residues 147–522); 6xHis-SUMO (N, cleaved yes); made in house; host or cells: Escherichia coli BL21 (DE3)
Experiment: RNA-based fluorescent biosensor assay of cGAS activity (2',3'-cGAMP formation), in vitro screening
Type: biochemical
Conditions: for Remaining activity (%), Fig. 1a source data / remaining activity at 20 µM: 20 μM, replicate values; for remaining activity at 20 µM: read-out: Remaining activity (%), Fig. 1a source data; for inhibition at 20 µM / Inhibition %: peptides screened at 20 μM, Supplementary Table 1 / Fig. S5b; for inhibition at 20 µM: read-out: Inhibition %
Text: To screen direct cGAS inhibitors targeting protein-DNA interface from our developed focused library of macrocyclic peptides, we applied an RNA-based fluorescent biosensor for 2’,3’-cGAMP to detect cGAS activity in vitro (Supplementary Fig. 1a)[49]. The formation of 2’,3’-cGAMP from ATP and GTP was catalyzed by recombinant human cGAS enzyme (hcGAS-ΔN, residues 147–522, Supplementary Fig. 1b) in the presence of ISD (interferon stimulatory DNA, a 45-bp dsDNA), which was readily quantified by the RNA-based fluorescent biosensor and was further confirmed by ion exchange chromatography (Supplementary Fig. 1c). […] Subsequently, a total of 90 macrocyclic peptides were screened at a concentration of 20 μM (Fig. 1a and Supplementary Fig. 1e), and 4 hits (XQ2, XQ8, XQ19, and XQ46) were obtained for further testing at a cut-off of 40% inhibition (Supplementary Table 1). To evaluate the inhibitory effect of the hits against cGAS in cells, we employed real-time quantitative PCR (qPCR) to examine mRNA levels of IFNΒ1 in THP1 cells. The reported cGAS inhibitor RU.521 was used as the positive control, and the non-active peptide XQ28 in the screening assay was used as the negative control. […] The inhibition of cGAS by these hits was further confirmed in the reporter cell line THP1-Lucia ISG (Invivogen) that expresses secreted luciferase induced by an IRF3-inducible ISG54 promoter (Fig. 1c). The discrepancy between the inhibitory effect of the hits in protein and cellular assays may be attributed to their different cellular permeability.
The high-throughput screening (HTS) experiments of cGAS activity are based on the method previously described. To initiate the enzyme reaction, ISD was added to the reaction solution (40 mM Tris-HCl, pH 7.5, 100 mM NaCl, 10 mM MgCl2) containing hcGAS-ΔN, ATP (Sangon Biotech, Cat# A600311) and GTP (Sangon Biotech, Cat# A620332) in a total volume of 20 ul with the final concentration of 0.5 μM, 1.5 μM, 1 mM, 1 mM, respectively, and incubated for 2 h at 37 °C. For HTS experiments, compounds were added to the same reaction conditions as described above with the final concentration of 20 μM. Z’ factors were calculated from three replicates in the 384-well plate.

T1 sequence (Q8N884 147-522, stated change not applied): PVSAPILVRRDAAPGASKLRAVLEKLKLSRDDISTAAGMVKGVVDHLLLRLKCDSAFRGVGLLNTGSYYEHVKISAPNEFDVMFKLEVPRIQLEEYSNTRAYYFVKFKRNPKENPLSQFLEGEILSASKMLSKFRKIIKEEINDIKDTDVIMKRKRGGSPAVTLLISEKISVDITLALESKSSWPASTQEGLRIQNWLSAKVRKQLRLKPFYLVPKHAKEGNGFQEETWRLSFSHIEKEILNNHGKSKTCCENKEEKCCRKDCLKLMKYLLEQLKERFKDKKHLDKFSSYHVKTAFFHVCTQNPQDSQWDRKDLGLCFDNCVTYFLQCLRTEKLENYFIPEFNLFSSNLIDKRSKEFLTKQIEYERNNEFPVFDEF

Row | Remaining activity (%), Fig. 1a source data | remaining activity at 20 µM | inhibition at 20 µM | Inhibition % | Compound
1 | 96.1851% and 95.3459% | 96% | 4% |  | CC(C)C[C@@H]1NC(=O)[C@H](CCCNC(=N)N)NC(=O)[C@H](C(C)C)NC(=O)[C@@H]2CCCN2C(=O)[C@@H](C)NC(=O)[C@H](C)NC(=O)[C@H](CCCNC(=N)N)NC(=O)[C@H](C(C)C)NC(=O)[C@@H]2CCCN2C(=O)[C@@H](Cc2ccccc2)NC1=O [XQ14, Cyclo (AaPVRLfPVR)] (cyclo(A[dA]PVRL[dF]PVR))
2 | 101.101% and 103.439% and 102.283% |  |  | 0% | Cyclo (LaP(T(Bzl))RLaPTR) [XQ41]
3 |  |  | 0% |  | CC(C)C[C@@H]1NC(=O)[C@H](CCCNC(=N)N)NC(=O)[C@H](C(C)C)NC(=O)[C@@H]2CCCN2C(=O)[C@@H](Cc2ccccc2)NC(=O)[C@H](CC(C)C)NC(=O)[C@H](CC(=O)O)NC(=O)[C@H](CCC(N)=O)NC(=O)[C@@H]2CCCN2C(=O)[C@@H](Cc2ccccc2)NC1=O [XQ68, Cyclo (LfPQDLfPVR)] (cyclo(DL[dF]PVRL[dF]PQ))
4 | 86.4291% and 86.3946% | 85.2% | 14% |  | CC(C)C[C@@H]1NC(=O)[C@H](CCCNC(=N)N)NC(=O)[C@H](C(C)C)NC(=O)[C@@H]2CCCN2C(=O)[C@@H](Cc2c[nH]c3ccccc23)NC(=O)[C@H](CC(C)C)NC(=O)[C@H](CCCNC(=N)N)NC(=O)[C@H](C(C)C)NC(=O)[C@@H]2CCCN2C(=O)[C@@H](Cc2c[nH]c3ccccc23)NC1=O [XQ11, Cyclo (LwPVRLwPVR)] (cyclo(L[dW]PVRL[dW]PVR))
5 |  |  |  | 0% | Cyclo (LfRVDAfPVR) [XQ82]
6 | 93.4229% and 93.3308% | 93.7% | 7% |  | CC(C)C[C@@H]1NC(=O)[C@H](CCCNC(=N)N)NC(=O)[C@H](C(C)C)NC(=O)[C@@H]2C[C@@H](O)CN2C(=O)[C@@H](Cc2ccccc2)NC(=O)[C@H](CC(C)C)NC(=O)[C@H](CCCNC(=N)N)NC(=O)[C@H](C(C)C)NC(=O)[C@@H]2C[C@@H](O)CN2C(=O)[C@@H](Cc2ccccc2)NC1=O [XQ12, Cyclo (Lf(Hyp)VRLf(Hyp)VR)] (cyclo([Hyp]VRL[dF][Hyp]VRL[dF]))
7 | 109.194% and 109.746% | 107% | 0% |  | N=C(N)NCCC[C@@H]1NC(=O)[C@@H]2CCCN2C(=O)[C@H](Cc2ccccc2)NC(=O)[C@H](CCCNC(=N)N)NC(=O)[C@@H]2CCCN2C(=O)[C@@H](Cc2ccccc2)NC1=O [XQ27, Cyclo (RfPRFP)] (cyclo(FPR[dF]PR))
8 |  |  | 0% |  | CC(C)C[C@@H]1NC(=O)[C@H](CCCNC(=N)N)NC(=O)[C@H](C(C)C)NC(=O)[C@@H]2CCCN2C(=O)[C@@H](Cc2ccccc2)NC(=O)[C@H](CC(C)C)NC(=O)[C@H]([C@@H](C)O)NC(=O)[C@@H]2CCCN2C(=O)[C@@H](Cc2ccccc2)NC(=O)[C@H](CC(=O)O)NC1=O [XQ63, Cyclo (LDfPTLfPVR)] (cyclo(D[dF]PTL[dF]PVRL))
9 |  |  |  | 0% | Cyclo (LwPTD(Nle)f(K(Dde))VR) [XQ73]
10 |  |  | 0% |  | CC(C)C[C@@H]1NC(=O)[C@H](CC(=O)O)NC(=O)[C@H](C(C)C)NC(=O)[C@@H]2CCCN2C(=O)[C@@H](C)NC(=O)[C@H](C)NC(=O)[C@H](CCCNC(=N)N)NC(=O)[C@H](C(C)C)NC(=O)[C@@H]2CCCN2C(=O)[C@@H](Cc2ccccc2)NC1=O [XQ78, Cyclo (AaPVDLfPVR)] (cyclo(A[dA]PVDL[dF]PVR))
11 | 92.0132% and 91.3002% | 92.3% | 8% |  | CC(C)C[C@@H]1NC(=O)[C@H](CCCNC(=N)N)NC(=O)[C@H](C(C)C)NC(=O)[C@@H]2CCCN2C(=O)[C@@H](Cc2ccccc2)NC(=O)[C@H](C)NC(=O)[C@H](CCCNC(=N)N)NC(=O)[C@H](C(C)C)NC(=O)[C@@H]2CCCN2C(=O)[C@@H](Cc2ccccc2)NC1=O [XQ5, Cyclo (AfPVRLfPVR)] (cyclo(A[dF]PVRL[dF]PVR))
